Target: T1, CYP2c11 (Rattus norvegicus, UniProt P08683)
T1 sequence (P08683 1-500): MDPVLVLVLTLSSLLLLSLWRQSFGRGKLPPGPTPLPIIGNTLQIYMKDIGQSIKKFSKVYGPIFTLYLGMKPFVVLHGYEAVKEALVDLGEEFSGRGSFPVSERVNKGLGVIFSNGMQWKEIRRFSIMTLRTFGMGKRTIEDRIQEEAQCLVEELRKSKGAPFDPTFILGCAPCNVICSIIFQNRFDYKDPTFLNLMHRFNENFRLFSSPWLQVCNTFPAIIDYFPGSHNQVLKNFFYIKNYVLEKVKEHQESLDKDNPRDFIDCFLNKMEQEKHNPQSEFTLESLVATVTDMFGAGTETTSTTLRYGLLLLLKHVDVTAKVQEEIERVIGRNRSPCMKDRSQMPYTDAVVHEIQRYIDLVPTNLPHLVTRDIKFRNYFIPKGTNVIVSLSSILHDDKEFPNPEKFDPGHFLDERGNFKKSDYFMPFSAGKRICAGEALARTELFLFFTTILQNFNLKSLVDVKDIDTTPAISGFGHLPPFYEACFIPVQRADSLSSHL
Parameters: from tissue; host or cells: live male Sprague-Dawley rats (whole animal, mainly liver)
Conditions: in vivo
Experimental: The effect of the Zhicaowu–Hezi combination on CYP450 enzymes in rats was evaluated by examining the pharmacokinetics of theophylline (CYP1a2), metoprolol (CYP2d2), bupropion (CYP2b1), omeprazole (CYP2c13), chlorzoxazone (CYP2e1), testosterone (CYP3a1), and diclofenac (CYP2c11).
The collected blood was placed in sodium heparin-treated centrifuge tubes and centrifuged at 4°C for 10 min at 3,000 RPM. […] After 10 min of sedimentation, the supernatant was extracted through a 0.22-μm microporous membrane, 20 μL of which was injected into HPLC. The pharmacokinetic parameters of each probe drug were calculated using the non-atrial compartment model in Drug and Statistics software (DAS, 3.0; Shanghai, China).

CCC1(c2ccccc2)C(=O)NC(=O)NC1=O [P, phenobarbital sodium]
diclofenac AUC(0-t): 3978 ± 385 ng·h/mL | diclofenac AUC(0-∞): 4057 ± 343 ng·h/mL | diclofenac CLz/F: 3,071.310 ± 519.261 mL/h/kg | diclofenac Cmax: 735 ± 68 ng/mL | diclofenac t1/2 z: 3.342 ± 0.425 h

— PMC12301304 (Frontiers in Pharmacology, 2025)
